Test results published in patent publication US20120028244A1, “Anti-Viral Azide Containing Compounds” (LIFE TECHNOLOGIES CORPORATION, priority 2010, published 2012).

Key:
[1] = test system: Nuclear-GFP BacMam 2.0 virus (baculovirus); experiment: Infectivity of PTM analog-labeled Nuclear-GFP BacMam virus in U2-OS cells; format: cell-based; conditions: BacMam virus labeled in Sf9 insect cells with 50 uM analog; U2-OS cells incubated overnight with labeled virus; FIG. 5
Source text: Inhibition of insect cell baculovirus infectivity with azido fatty acid analogs: The BacMam system uses a modified insect cell virus (baculovirus) as a vehicle to efficiently deliver and express genes in mammalian cells. A Nuclear-GFP BacMam 2.0 expression system (Invitrogen, C10602) was used as a model to determine if PTM analog labeling of the virus would affect mammalian cell infectivity. Viruses were labeled with various PTM analogs and used to infect mammalian cells. Infectivity was determined by the expression of nuclear-GFP, as viral entry into the cell is required for expression of GFP protein. […]
Characterization of BacMam Virus Production: To verify, quantitate, and normalize the amount of enriched viruses obtained from insect cell supernatants, samples of each virus were lysed in SDS sample preparation buffer (SPB), sonicated with a probe tip sonicator, and heated at 90C to completely dissolve the viral proteins. Viral protein concentrations of the lysates were then determined. […]
Mammalian Cell Infection Protocol: To determine if the PTM analog-labeled viruses retain the ability to infect mammalian cells, 50,000 U2-OS cells (human osteosarcoma cell line) were plated onto a 6 well-chamber glass bottom plate. […] The following day cells were imaged on AMG EVOS fluorescence microscope at 10× or 20× magnification using both white light and GFP filters (FIG. 5). […]

HIV = experiment: Luciferase reporter assay of infectivity of azide-labeled HIV on TZM/BI reporter cells; format: cell-based, human immunodeficiency virus; conditions: HIVNL4-3 produced in CEMx174 cells spiked with the compound; labeled virus incubated 12 hours on TZM/BI reporter cells; single cycle replication system; FIGS. 3 and 4
Description: CEMx174 cells were transfected with HIVNL4-3 in a T-150 flask and the virus production was monitored by reverse transcriptase activity until peak virus production occurred (usually 7 to 9 days post transfection). Prior to transfection, the CEMx174 cells were spiked with the following azide-modified biomolecules: 15-azidopentadecanoic acid (50-100 μM), 12-azidododecanoic acid (50-100 μM), tetraacetylated N-azidoacetylgalactosamine (20-40 μM), and tetraacetylated N-azidoacetyl-D-mannosamine (20-40 μM).
Labeled virus was also obtained from the transfected cells. More specifically, virus-containing supernatants were collected and virus was purified through 20% sucrose as previously described (Graham, D. R. et al., Proteomics 2008, 8:4919-30). The purified virus was then mixed with the CLICK-IT® detection reagent, tetramethylrhodamine (TAMRA) alkyne and the CLICK-IT® Protein Reaction Buffer Kit (Invitrogen, Carlsbad, Calif.). Virus samples were run on a one-dimensional gel to reveal azide-labeled viral proteins (FIG. 2). […]
To examine the effect of the azide-modified biomolecules on the innate biology of the virus, the azide-labeled virus from the transfected cells was isolated and tested in cell infection studies. […] Viral infectivity was determined by measuring cellular luciferase activities with two different luciferase reagents.

SMILES	nuclear-GFP expression in U2-OS cells (viral entry) [1]	impact on the infectivity of the virus (cellular luciferase activity) (HIV)
[N-]=[N+]=NCCCCCCCCCCCC(=O)O [12-azidododecanoic acid]	no nuclear-GFP expression	profound impact on the infectivity of the virus
[N-]=[N+]=NCCCCCCCCCCCCCCC(=O)O [15-azidopentadecanoic acid]	no nuclear-GFP expression	–
